Laboratory results from the NIST ThermoML archive (doi:10.1021/je500448j).
± gives the expanded uncertainty stated by the source.

Conditions: 298.15 K; 101.33 kPa; Liquid; Vibrating tube method

SMILES | mass density [kg/m3]
CN(C)c1ccccc1 [N,N-dimethylaniline] | 952.05 ± 0.23
Nc1ccccc1 [aniline] | 1017.39 ± 0.09
